Laboratory results as given in patent publication US20260327211A1, “MODULATORS OF A POTASSIUM CHANNEL AND OF TRPV1 CHANNEL AND USES THEREOF” (Bsense Bio Therapeutics Ltd., priority 2023, published 2026).
Read-outs that look alike come from different tables or passages of the source.

Columns and labels:
[1] = Rat liver microsome metabolic stability; assay type: in vitro ADME; settings: rat liver microsomes; for half-life at 1 µM: read-out: RLM T1/2
From the text: Liver microsomes which are subcellular particles derived from endoplasmic reticulum of hepatic cells were used for evaluating the tested compounds. These particles are rich in drug metabolizing enzymes, including the cytochrome p-450 family. Liver microsomes are a recommended test system for various in vitro drug metabolism and pharmacokinetics (DMPK) studies. CLint values lower than […] are considered suitable for drug development.
Liver Microsome Metabolic Stability Assay (NADPH): The liver microsome stability assay was evaluated through pre-incubation with HLMs. A liver microsome mixture (pooled from multiple donors) at a concentration of 0.5 mg/mL, and the test compound at a concentration of 1 μM, were warmed in the presence of a NADPH regenerating system (about 1.0 mM) at 37° C. Positive controls, including testosterone (a CYP3A4 substrate), propafenone (a CYP2D6 substrate), and diclofenac (a CYP2C9) substrate, were concurrently incubated with the HLMs, in the presence of the NADPH regenerating system (1.0 mM). Samples were extracted during incubation at multiple intervals: 0, 5, 15, 30, 45 and 60 minutes. To terminate the reactions, the samples were promptly mixed with cooled acetonitrile that included an internal standard (IS). An additional compound was incubated with the HLMs in the absence of the NADPH regeneration system, from which a sample was taken at the 60-minute interval.
The clearance of the test compound in the samples was subsequently analyzed by LC-MS/MS based on the peak area ratios of the analyte to the IS.
The following equation was used to calculate the microsome clearance: […]
Liver weight: 40 grams/kg, 30 grams/kg, 32 grams/kg, 20 grams/kg and 88 grams/kg, for rat, monkey, dog, human and mouse, respectively.

hKv7.3/5 = target: T1, hKv7.3/5 (Homo sapiens, UniProt O43525+Q9NR82); assay: Kv7.3/5 HCS, FLIPR potassium assay; assay type: cell-based
T1 construct: expressed in transfected cells; host or cells: CHO
Protocol: (§1) Cell culture: Chinese hamster ovary (CHO) cell-line cells were cultured in F-12 nutrient mixture (Biological Industries) supplemented with 10% fetal bovine serum with 1% penicillin-streptomycin (Biological Industries) in a humidified 5% CO2 incubator at 37° C. To express the appropriate gene either Kv7.3/5, Kv7.4 or TRPA1 5 μg plasmid was transfected using Amaxa, DT-133 program, with p-3 Kit.
(§2) Kv7.3/5 and 7.4HCS using FLIPR Potassium Assay Kit: Kv7.3/5 and 7.4 HCS using the FLIPR Potassium Assay Kit was performed similarly to the Kv7.2/3 HCS, except that the Tecan Spark plate-reader injectors were primed with Tl+(1 mM Tl2SO4) or Tl++K+(1 mM Tl2SO4; 5 mM K2SO4) for Kv7.3/5, or Tl+(1 mM Tl2SO4) or Tl++K+(1 mM Tl2SO4; 10 mM K2SO4) for Kv7.4 for channel activation and data correction.
(§3) FLIPR Potassium Assay Kit: The FLIPR Potassium Assay Kit (R8222 FLIPR Potassium Assay Explorer Kits, Molecular Devices) was used with transfected CHO cells.
(§4) According to optimization process, to achieve a uniform and consistent screening condition of molecules, the following protocol was established: 2 days following transfection cells were seeded in 384-well, black-walled, clear-bottomed, at a density of 5,000 cells per well 24 hours before the assay conductance and incubated overnight in their normal growth medium. On the experiment day the medium was replaced with HBSS, HEPES, and the tested compound/vehicle (0.2% DMSO). Dye solution (prepared according to the manufacturer) was added to the wells and plates were incubated for 1.5 hour light-protected in room temperature. The Tecan Spark plate-reader injectors were primed with Tl+(1 mM Tl2SO4) or Tl++K+(1 mM Tl2SO4; 5 mM K2SO4) for Kv7.3/5 channel activation and data correction or Tl+(1 mM Tl2SO4) or Tl++K+(1 mM Tl2SO4; 10 mM K2SO4) for Kv7.4 for channel activation and data correction. […] To calculate IC50 values, the data was fitted to sigmoidal regression using Prism GraphPad.

hKv7.4 = target: T2, hKv7.4 (Homo sapiens, UniProt P56696); assay: Kv7.4 HCS, FLIPR potassium assay; assay type: cell-based
T2 construct: expressed in transfected cells; host or cells: CHO
Protocol: as §1, §2, §3, §4

T2 sequence (P56696 whole entry): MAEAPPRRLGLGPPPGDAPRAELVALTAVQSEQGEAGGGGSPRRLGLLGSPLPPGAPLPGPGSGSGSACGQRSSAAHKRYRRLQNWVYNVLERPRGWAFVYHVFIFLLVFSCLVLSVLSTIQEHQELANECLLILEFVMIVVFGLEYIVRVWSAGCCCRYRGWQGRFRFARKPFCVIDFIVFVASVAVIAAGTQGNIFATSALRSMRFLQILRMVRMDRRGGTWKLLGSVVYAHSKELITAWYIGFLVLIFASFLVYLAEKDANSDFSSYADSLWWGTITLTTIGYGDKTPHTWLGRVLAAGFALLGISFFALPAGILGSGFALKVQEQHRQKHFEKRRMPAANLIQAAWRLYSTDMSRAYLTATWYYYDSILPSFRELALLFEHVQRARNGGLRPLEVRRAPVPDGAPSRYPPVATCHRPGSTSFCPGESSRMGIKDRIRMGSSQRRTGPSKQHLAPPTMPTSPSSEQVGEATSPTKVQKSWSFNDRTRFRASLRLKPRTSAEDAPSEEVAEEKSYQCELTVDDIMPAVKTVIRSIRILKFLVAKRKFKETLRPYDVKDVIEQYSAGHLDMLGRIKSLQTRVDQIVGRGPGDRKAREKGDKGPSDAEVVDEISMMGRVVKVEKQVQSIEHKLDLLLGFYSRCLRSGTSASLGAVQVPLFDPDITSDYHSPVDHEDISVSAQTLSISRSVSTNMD
T1 sequence (O43525 whole entry): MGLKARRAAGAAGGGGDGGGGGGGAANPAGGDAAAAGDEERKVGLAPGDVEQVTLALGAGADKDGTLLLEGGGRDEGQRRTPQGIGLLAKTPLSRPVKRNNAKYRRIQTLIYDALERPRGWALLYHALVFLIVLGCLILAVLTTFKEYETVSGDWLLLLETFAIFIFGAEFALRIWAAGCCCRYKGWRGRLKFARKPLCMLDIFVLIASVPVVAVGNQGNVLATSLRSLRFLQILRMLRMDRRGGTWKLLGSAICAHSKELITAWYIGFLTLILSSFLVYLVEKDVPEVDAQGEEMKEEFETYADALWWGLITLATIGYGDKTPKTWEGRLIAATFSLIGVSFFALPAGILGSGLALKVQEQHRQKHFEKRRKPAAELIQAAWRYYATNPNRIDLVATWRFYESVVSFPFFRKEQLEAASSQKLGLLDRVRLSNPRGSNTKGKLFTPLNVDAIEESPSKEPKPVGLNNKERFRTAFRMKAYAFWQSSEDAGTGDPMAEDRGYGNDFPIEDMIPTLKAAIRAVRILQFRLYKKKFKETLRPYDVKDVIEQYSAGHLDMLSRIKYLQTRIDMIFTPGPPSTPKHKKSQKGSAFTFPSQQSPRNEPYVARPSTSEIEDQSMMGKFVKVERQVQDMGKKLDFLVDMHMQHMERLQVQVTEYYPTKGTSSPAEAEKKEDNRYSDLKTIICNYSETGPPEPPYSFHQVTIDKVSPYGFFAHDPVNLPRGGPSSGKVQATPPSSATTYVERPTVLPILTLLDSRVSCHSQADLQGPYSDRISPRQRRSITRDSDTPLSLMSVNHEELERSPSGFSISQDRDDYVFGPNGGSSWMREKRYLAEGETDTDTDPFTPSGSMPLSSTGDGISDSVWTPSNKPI
T1 sequence (Q9NR82 whole entry): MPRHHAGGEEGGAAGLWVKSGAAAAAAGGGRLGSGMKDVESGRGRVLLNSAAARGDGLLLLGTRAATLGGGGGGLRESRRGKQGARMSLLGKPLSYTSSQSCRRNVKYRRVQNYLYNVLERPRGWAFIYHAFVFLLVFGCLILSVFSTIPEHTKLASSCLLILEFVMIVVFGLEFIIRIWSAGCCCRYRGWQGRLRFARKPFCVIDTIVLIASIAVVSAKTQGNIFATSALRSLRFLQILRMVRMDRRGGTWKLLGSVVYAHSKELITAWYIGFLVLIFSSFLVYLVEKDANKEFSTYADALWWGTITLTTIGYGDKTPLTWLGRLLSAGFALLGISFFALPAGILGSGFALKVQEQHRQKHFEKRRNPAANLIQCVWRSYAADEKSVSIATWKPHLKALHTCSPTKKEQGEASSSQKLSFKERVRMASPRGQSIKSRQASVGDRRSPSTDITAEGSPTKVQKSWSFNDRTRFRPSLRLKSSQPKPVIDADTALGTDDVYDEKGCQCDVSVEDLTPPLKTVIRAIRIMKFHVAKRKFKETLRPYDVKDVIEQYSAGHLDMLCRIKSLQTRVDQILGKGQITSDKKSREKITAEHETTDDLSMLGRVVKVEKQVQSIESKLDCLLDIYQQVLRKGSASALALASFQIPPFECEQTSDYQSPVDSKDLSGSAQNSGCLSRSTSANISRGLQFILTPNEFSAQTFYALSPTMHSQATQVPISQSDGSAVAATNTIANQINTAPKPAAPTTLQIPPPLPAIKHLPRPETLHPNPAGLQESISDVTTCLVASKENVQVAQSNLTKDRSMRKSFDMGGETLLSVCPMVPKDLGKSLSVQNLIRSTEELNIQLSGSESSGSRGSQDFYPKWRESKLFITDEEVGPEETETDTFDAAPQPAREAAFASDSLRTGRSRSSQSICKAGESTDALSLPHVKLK

SMILES | CLint scaled at 1 µM [1] [mL/min/kg] | half-life at 1 µM [1] [min] | EC50 (hKv7.3/5; read-out: Kv7.3/5 EC50 HCS) [µM] | EC50 (hKv7.4; read-out: Kv7.4 EC50 HCS) [µM] | Kv7.4 activity (hKv7.4) | EC50 (hKv7.3/5; Thallium ions (Tl+) fluorescence, read-out: hKv7.3/5 EC50) [µM] | EC50 (hKv7.4; Thallium ions (Tl+) fluorescence, read-out: hKv7.4 EC50) [µM]
Cc1cn(-c2ccc(F)c(CC(=O)NCC(C)(C)O)c2)c2c(Cl)cc(Cl)cc12 [Compound 421] | 177 | 14.1 | 3 | > 2 | – | – | –
O=C(Cc1cc(-n2cc(Cl)c3cc(Cl)cc(Cl)c32)ccc1F)NCCO [Compound 627] | 63.5 | 39.3 | > 0.6 | 88 | – | – | –
O=C(Cc1cncc(-n2cc(Cl)c3cc(Cl)cc(Cl)c32)c1)N[C@@H]1COC[C@H]1O [Compound 661] | 527 | 4.7 | 40.9 | 49.3 | no measurable activity at any concentration tested | – | –
O=C(Cc1nccc(-n2cc(Cl)c3cc(Cl)cc(Cl)c32)n1)NC1COCC1O (stereo not drawn) [Compound 760] | – | 11.9 | – | – | lacks any effect on hERG and Kv7.3/4/5 activity below 10 μM | 10.7 | 46.2
CC(C)c1cc(Cl)cc(Cl)c1Nc1ccc(F)c(CC(=O)NCC(C)(C)O)c1 [NH91, reference compound] | – | 2.5 | – | – | – | – | –
